In brackets after ≈: the same amount, converted by molar mass. Numbered stars: 1 amine (or outer) side, 2 acyl side, 3 side chain; on linkers, the order of the positions; unused ones are H or OH. Bridge positions count the residues as written; N and C are the ends. Square brackets hold non-standard residues; d marks the D form. Peptide text beside a SMILES is read from it. * marks the point of attachment. hTyr(3S-OH,4S-OH,3'-OSO3H) = N[C@H](C(=O)O)[C@H](O)[C@@H](O)c1ccc(O)c(OS(=O)(=O)O)c1; Orn(4R-OH,5R-OH) = O=C([C@H](C[C@@H](O)[C@@H](O)N[*:3])N[*:1])[*:2]; Orn(4R-OH,5S-OH) = O=C([C@H](C[C@@H](O)[C@H](O)N[*:3])N[*:1])[*:2]; hTyr(3S-OH,4S-OH) = N[C@H](C(=O)O)[C@H](O)[C@@H](O)c1ccc(O)cc1; Pro(3S-OH,4S-Me) = C[C@H]1CN[C@H](C(=O)O)[C@H]1O; Benzoyl(4-octyloxy) = CCCCCCCCOc1ccc(C(=O)*)cc1; Gln(3R-OH) = NC(=O)C[C@@H](O)[C@H](N)C(=O)O; Palmitoyl = CCCCCCCCCCCCCCCC(=O)*; Hyp = O=C(O)[C@@H]1C[C@@H](O)CN1
How the values were obtained:
Candida albicans [1] = assay: In vivo effective dose for antifungal activity on sc administration in female mice infected with 2.5*10e6 cells/mL of Candida albicans at day 14; type: functional
Candida albicans [2] = assay: In vivo effective dose for antifungal activity on sc administration in female mice infected with 2.5*10e6 cells/mL of Candida albicans at day 10; type: functional
Candida albicans [3] = assay: In vitro antifungal activity against Candida albicans FP629 at 37 degrees C for 22h; type: functional, organism-based
Homo sapiens [4] = organism: Homo sapiens; assay: Lytic concentration for hemolytic activity in human by akaishi method; type: functional
Homo sapiens [5] = organism: Homo sapiens; assay: Minimum lytic concentration that lysed red blood cells in human; type: functional
Candida tropicalis = assay: In vitro antifungal activity against Candida tropicalis YC118 at 37 degrees C for 22h; type: functional, organism-based
Aspergillus fumigatus = assay: In vitro antifungal activity against Aspergillus fumigatus FD050 at 37 degrees C for 22h; type: functional, organism-based
Cyberlindnera jadinii = assay: In vitro antifungal activity against Candida utilis YC123 at 37 degrees C for 22h; type: functional, organism-based; conditions: Williopsis jadinii
Candida albicans [6] = assay: Compound was tested for inhibitory activity against 1,3-beta-glucan synthase from Candida albicans 6406; type: functional
Aspergillus niger = assay: In vitro antifungal activity against Aspergillus niger ATCC 9642 at 37 degrees C for 22h; type: functional, organism-based; conditions: ATCC 9642, 22 h
Cryptococcus neoformans [7] = assay: In vitro antifungal activity against Cryptococcus neoformans YC203 at 30 degrees C for 48 hr; type: functional, organism-based
Mus musculus = organism: Mus musculus; assay: Minimum lytic concentration that lysed red blood cells in mouse; type: functional
Pneumocystis carinii [8] = assay: Evaluated for inhibitory growth of Pneumocystis carinii cysts in lungs administered at the dose of 10 mg/kg expressed as number of cysts/lungs for 3 weeks; type: functional
Pichia kudriavzevii = assay: In vitro antifungal activity against Candida krusei YC109 at 37 degrees C for 22h; type: functional, organism-based
Pneumocystis carinii [9] = assay: Evaluated for inhibitory growth of Pneumocystis carinii cysts in lungs administered at the dose of 10 mg/kg expressed as number of cysts/lungs for 8 weeks; type: functional
Candida albicans [10] = assay: In vitro antifungal activity against Candida albicans FP633 at 37 degrees C for 22h; type: functional, organism-based
Candida albicans [11] = assay: In vitro antifungal activity against Candida albicans FP582 at 37 degrees C for 22h; type: functional, organism-based
Candida albicans [12] = assay: In vitro antifungal activity against Candida albicans FP578 at 37 degrees C for 22h; type: functional, organism-based
Candida albicans [13] = assay: In vitro inhibitory concentration required for antifungal activity against Candida albicans FP578 at 37 degrees C for 22h; type: functional, organism-based
Cryptococcus neoformans [14] = assay: In vitro inhibitory concentration degrees C for 48 hr; type: functional, organism-based

OC(Cn1cncn1)(Cn1cncn1)c1ccc(F)cc1F [FLUCONAZOLE]
ED50 (Candida albicans [1]): 2.4 mg/kg | ED50 (Candida albicans [2]): < 1 mg/kg

CCCCCCCCOc1ccc(C(=O)N[C@H]2C[C@@H](O)[C@H](O)NC(=O)[C@@H]3[C@@H](O)[C@@H](C)CN3C(=O)[C@H]([C@H](O)CC(N)=O)NC(=O)[C@H]([C@H](O)[C@@H](O)c3ccc(O)c(OS(=O)(=O)[O-])c3)NC(=O)[C@@H]3C[C@@H](O)CN3C(=O)[C@H]([C@@H](C)O)NC2=O)cc1.[Na+] [FR-131535] ({Benzoyl(4-octyloxy)}-[Orn(4R-OH,5S-OH)]T[Hyp][hTyr(3S-OH,4S-OH,3'-OSO3H)][Gln(3R-OH)][Pro(3S-OH,4S-Me)]; lactam 1-C)
ED50 (Candida albicans [1]): 3.5 mg/kg | IC50 (Candida albicans [3]): 0.47 µg/mL | LC30 (Homo sapiens [4]): > 500 µg/mL | ED50 (Candida albicans [2]): 3 mg/kg | MLC (Homo sapiens [5]): > 1000 µg/mL | IC50 (Candida tropicalis): 0.47 µg/mL | IC50 (Aspergillus fumigatus): < 0.003 µg/mL | IC50 (Cyberlindnera jadinii): 1.35 µg/mL | IC50 (Candida albicans [6]): 2.8 µg/mL | IC50 (Aspergillus niger): 0.16 µg/mL | IC50 (Cryptococcus neoformans [7]): > 2.5 µg/mL | MLC (Mus musculus): > 500 µg/mL | Activity (Pneumocystis carinii [8]): <1.8 | IC50 (Pichia kudriavzevii): 1.9 µg/mL | Activity (Pneumocystis carinii [9]): 2.3 | IC50 (Candida albicans [10]): 0.47 µg/mL | IC50 (Candida albicans [11]): 0.39 µg/mL | IC50 (Candida albicans [12]): 0.31 µg/mL

C[C@@H]1[C@H](O)[C@@H](C)/C=C/C=C/C=C/C=C/C=C/C=C/C=C/[C@H](O[C@@H]2O[C@H](C)[C@@H](O)[C@H](N)[C@@H]2O)C[C@@H]2O[C@](O)(C[C@@H](O)C[C@@H](O)[C@H](O)CC[C@@H](O)C[C@@H](O)CC(=O)O[C@H]1C)C[C@H](O)[C@H]2C(=O)O [AMPHOTERICIN B]
IC50 (Candida albicans [3]): 0.39 µg/mL (≈ 0.422 µM) | IC50 (Candida tropicalis): 0.62 µg/mL (≈ 0.671 µM) | IC50 (Aspergillus fumigatus): 0.62 µg/mL (≈ 0.671 µM) | IC50 (Cyberlindnera jadinii): 0.47 µg/mL (≈ 0.509 µM) | IC50 (Aspergillus niger): 1.9 µg/mL (≈ 2.06 µM) | IC50 (Cryptococcus neoformans [7]): 0.39 µg/mL (≈ 0.422 µM) | IC50 (Pichia kudriavzevii): 1.6 µg/mL (≈ 1.73 µM) | IC50 (Candida albicans [10]): 0.39 µg/mL (≈ 0.422 µM) | IC50 (Candida albicans [13]): 0.39 µg/mL (≈ 0.422 µM) | IC50 (Candida albicans [11]): 0.55 µg/mL (≈ 0.595 µM)

CCCCCCCCOc1ccc(C(=O)N[C@H]2C[C@@H](O)[C@@H](O)NC(=O)[C@@H]3[C@@H](O)[C@@H](C)CN3C(=O)[C@H]([C@@H](C)O)NC(=O)[C@H]([C@H](O)[C@@H](O)c3ccc(O)cc3)NC(=O)[C@@H]3C[C@@H](O)CN3C(=O)[C@H]([C@@H](C)O)NC2=O)cc1 [CILOFUNGIN] ({Benzoyl(4-octyloxy)}-[Orn(4R-OH,5R-OH)]T[Hyp][hTyr(3S-OH,4S-OH)]T[Pro(3S-OH,4S-Me)]; lactam 1-C)
IC50 (Cryptococcus neoformans [14]): > 2.5 µg/mL | ED50 (Candida albicans [1]): > 10 mg/kg | IC50 (Candida albicans [3]): 0.47 µg/mL (≈ 0.456 µM) | LC30 (Homo sapiens [4]): > 500 µg/mL | ED50 (Candida albicans [2]): 5 mg/kg | MLC (Homo sapiens [5]): > 1000 µg/mL | IC50 (Candida tropicalis): 0.94 µg/mL (≈ 0.912 µM) | IC50 (Aspergillus fumigatus): > 0.003 µg/mL | IC50 (Cyberlindnera jadinii): 0.94 µg/mL (≈ 0.912 µM) | IC50 (Aspergillus niger): 0.08 µg/mL (≈ 0.0777 µM) | MLC (Mus musculus): > 500 µg/mL | IC50 (Pichia kudriavzevii): 3.2 µg/mL (≈ 3.11 µM) | IC50 (Candida albicans [10]): 0.39 µg/mL (≈ 0.379 µM) | IC50 (Candida albicans [13]): 0.36 µg/mL (≈ 0.349 µM) | IC50 (Candida albicans [11]): 0.24 µg/mL (≈ 0.233 µM)

CCCCCCCCCCCCCCCC(=O)N[C@H]1C[C@@H](O)[C@H](O)NC(=O)[C@@H]2[C@@H](O)[C@@H](C)CN2C(=O)[C@H]([C@H](O)CC(N)=O)NC(=O)[C@H]([C@H](O)[C@@H](O)c2ccc(O)c(OS(=O)(=O)O)c2)NC(=O)[C@@H]2C[C@@H](O)CN2C(=O)[C@H]([C@@H](C)O)NC1=O (Palmitoyl-[Orn(4R-OH,5S-OH)]T[Hyp][hTyr(3S-OH,4S-OH,3'-OSO3H)][Gln(3R-OH)][Pro(3S-OH,4S-Me)]; lactam 1-C)
ED50 (Candida albicans [1]): 2.9 mg/kg | IC50 (Candida albicans [3]): 0.018 µg/mL (≈ 0.0153 µM) | LC30 (Homo sapiens [4]): 160 µg/mL (≈ 136 µM) | ED50 (Candida albicans [2]): 1.1 mg/kg | MLC (Homo sapiens [5]): 31 µg/mL (≈ 26.4 µM) | IC50 (Candida tropicalis): 0.09 µg/mL (≈ 0.0766 µM) | IC50 (Aspergillus fumigatus): 1.3 µg/mL (≈ 1.11 µM) | IC50 (Cyberlindnera jadinii): 0.03 µg/mL (≈ 0.0255 µM) | IC50 (Candida albicans [6]): 0.7 µg/mL (≈ 0.596 µM) | IC50 (Aspergillus niger): 0.004 µg/mL (≈ 0.0034 µM) | IC50 (Cryptococcus neoformans [7]): > 2.5 µg/mL | MLC (Mus musculus): 31 µg/mL (≈ 26.4 µM) | Activity (Pneumocystis carinii [8]): <1.8 | IC50 (Pichia kudriavzevii): 0.14 µg/mL (≈ 0.119 µM) | Activity (Pneumocystis carinii [9]): 2 | IC50 (Candida albicans [10]): 0.018 µg/mL (≈ 0.0153 µM) | IC50 (Candida albicans [11]): 0.004 µg/mL (≈ 0.0034 µM) | IC50 (Candida albicans [12]): 0.025 µg/mL (≈ 0.0213 µM)

C[C@@H]([C@H](N)C(=O)N[C@H](C(=O)O)[C@H]1O[C@@H](n2cc(C=O)nc2O)[C@H](O)[C@@H]1O)[C@H](O)c1ccc(O)cn1
IC50 (Candida albicans [6]): > 100 µg/mL

COc1cc(Cc2cnc(N)nc2N)cc(OC)c1OC.Cc1cc(NS(=O)(=O)c2ccc(N)cc2)no1 [CO-TRIMOXAZOLE]
Activity (Pneumocystis carinii [8]): <1.8 | Activity (Pneumocystis carinii [9]): 4.1
